# Assay results as given in patent publication US11697648B2, “Fused pyrimidine pyridinone compounds as JAK inhibitors” (THERAVANCE BIOPHARMA R&D IP, LLC, priority 2019, dated 2023).
# Target: JAK1 (Homo sapiens (Human), UniProt P23458)
# Test: Biochemical JAK1 kinase assay (LanthaScreen)
# Conditions: not given
# In short: (§1)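 GST-JAK + GFP-STAT1 peptide, HEPES pH 7.5/MgCl2/EGTA/Brij-35 buffer; cpd preincubation 1 h RT; ATP start, 1 h RT; stop with 10 mM EDTA + 2 nM Tb-anti-pSTAT1; TR-FRET 520/495. 4-parameter IC50 → pKi (Cheng-Prusoff).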
# JAK1, sequence (P23458 whole entry): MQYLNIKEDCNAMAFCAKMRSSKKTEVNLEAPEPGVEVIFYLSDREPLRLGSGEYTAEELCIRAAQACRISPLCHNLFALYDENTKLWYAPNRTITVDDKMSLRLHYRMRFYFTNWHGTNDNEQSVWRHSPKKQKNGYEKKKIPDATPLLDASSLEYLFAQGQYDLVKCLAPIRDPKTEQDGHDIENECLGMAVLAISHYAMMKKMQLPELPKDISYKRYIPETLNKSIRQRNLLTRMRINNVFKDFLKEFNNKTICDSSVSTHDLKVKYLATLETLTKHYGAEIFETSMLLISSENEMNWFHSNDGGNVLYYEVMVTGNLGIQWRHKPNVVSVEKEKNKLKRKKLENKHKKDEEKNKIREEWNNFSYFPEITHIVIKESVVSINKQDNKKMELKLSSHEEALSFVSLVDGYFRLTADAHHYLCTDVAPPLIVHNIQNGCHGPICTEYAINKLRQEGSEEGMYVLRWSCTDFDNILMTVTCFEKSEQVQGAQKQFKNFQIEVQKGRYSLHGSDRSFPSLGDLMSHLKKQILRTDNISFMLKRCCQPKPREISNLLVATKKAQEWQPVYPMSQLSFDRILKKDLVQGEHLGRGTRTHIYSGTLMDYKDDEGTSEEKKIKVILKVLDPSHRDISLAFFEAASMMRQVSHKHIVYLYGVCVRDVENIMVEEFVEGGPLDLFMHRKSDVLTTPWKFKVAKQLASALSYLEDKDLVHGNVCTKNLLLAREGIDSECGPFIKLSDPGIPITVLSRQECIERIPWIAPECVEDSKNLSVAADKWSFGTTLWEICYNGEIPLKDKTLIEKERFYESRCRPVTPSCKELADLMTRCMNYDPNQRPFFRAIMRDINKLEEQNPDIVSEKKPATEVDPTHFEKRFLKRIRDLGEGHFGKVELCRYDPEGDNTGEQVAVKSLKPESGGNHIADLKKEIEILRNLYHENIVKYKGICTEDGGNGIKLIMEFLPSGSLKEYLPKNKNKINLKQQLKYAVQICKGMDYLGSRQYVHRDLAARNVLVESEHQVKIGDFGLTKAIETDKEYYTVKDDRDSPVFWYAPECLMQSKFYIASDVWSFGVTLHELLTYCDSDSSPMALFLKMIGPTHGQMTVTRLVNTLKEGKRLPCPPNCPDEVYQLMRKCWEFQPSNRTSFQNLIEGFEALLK
row,SMILES,JAK 1 (pKi)
1,C=CC(=O)N1CC(CCn2c(=O)ccc3cnc(Nc4ccc(N5CCN(C)CC5)c(O)c4)nc32)C1 [Example 136],E (E represents a pKi value of 7 or below (Ki of 100 nM or above))
2,C=CC(=O)N1CC(CCn2c(=O)ccc3cnc(Nc4ccc(N5CCN(C)CC5)cn4)nc32)C1 [Example 137],E (E represents a pKi value of 7 or below (Ki of 100 nM or above))
3,C=CC(=O)N1CC(CCn2c(=O)ccc3cnc(Nc4ccc(N5CCN(C(=O)C(C)(C)O)CC5)cc4)nc32)C1 [Example 138],E (E represents a pKi value of 7 or below (Ki of 100 nM or above))
4,C=CC(=O)N1CC(CCn2c(=O)ccc3cnc(Nc4ccc(N5CCN(C(=O)CC[S+](C)[O-])CC5)cc4)nc32)C1 (centres unmarked) [Example 139],E (E represents a pKi value of 7 or below (Ki of 100 nM or above))
5,C=CC(=O)N1CC(CCn2c(=O)ccc3cnc(Nc4ccc(N5CCN(C(=O)CCS(C)(=O)=O)CC5)cc4)nc32)C1 [Example 140],E (E represents a pKi value of 7 or below (Ki of 100 nM or above))

# Target: JAK2 (Homo sapiens (Human), UniProt O60674)
# Test: Biochemical JAK2 kinase assay (LanthaScreen)
# Conditions: not given
# In short: as §1
# JAK2, sequence (O60674 whole entry): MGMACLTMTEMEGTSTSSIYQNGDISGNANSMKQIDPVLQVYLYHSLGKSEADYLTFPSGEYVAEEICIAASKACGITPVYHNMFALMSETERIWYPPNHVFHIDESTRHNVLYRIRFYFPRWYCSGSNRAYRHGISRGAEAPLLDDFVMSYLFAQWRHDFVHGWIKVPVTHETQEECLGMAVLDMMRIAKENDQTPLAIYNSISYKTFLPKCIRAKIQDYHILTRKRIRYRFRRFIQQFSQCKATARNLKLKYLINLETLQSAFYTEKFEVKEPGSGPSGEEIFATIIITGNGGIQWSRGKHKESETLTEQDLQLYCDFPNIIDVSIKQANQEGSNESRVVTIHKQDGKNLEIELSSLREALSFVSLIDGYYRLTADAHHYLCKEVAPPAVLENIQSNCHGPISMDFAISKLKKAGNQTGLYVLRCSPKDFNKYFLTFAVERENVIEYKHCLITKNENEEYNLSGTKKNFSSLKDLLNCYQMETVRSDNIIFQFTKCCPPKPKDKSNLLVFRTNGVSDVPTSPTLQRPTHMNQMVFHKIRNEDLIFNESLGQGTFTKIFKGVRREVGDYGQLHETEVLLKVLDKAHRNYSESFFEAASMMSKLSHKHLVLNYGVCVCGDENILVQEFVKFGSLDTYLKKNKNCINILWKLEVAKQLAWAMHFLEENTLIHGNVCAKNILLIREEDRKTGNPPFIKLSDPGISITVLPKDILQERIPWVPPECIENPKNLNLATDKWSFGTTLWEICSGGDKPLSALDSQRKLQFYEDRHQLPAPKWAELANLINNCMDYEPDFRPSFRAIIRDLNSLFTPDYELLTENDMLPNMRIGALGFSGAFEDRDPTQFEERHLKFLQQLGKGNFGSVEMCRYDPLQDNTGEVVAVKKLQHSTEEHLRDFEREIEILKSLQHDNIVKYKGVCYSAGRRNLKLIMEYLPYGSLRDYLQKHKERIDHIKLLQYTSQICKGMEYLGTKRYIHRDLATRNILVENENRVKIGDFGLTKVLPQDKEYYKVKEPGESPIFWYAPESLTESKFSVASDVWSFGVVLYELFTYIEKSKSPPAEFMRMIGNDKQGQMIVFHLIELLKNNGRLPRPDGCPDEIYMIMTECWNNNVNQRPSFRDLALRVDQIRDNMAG
row,SMILES,JAK 2 (pKi)
1,C=CC(=O)N1CC(CCn2c(=O)ccc3cnc(Nc4ccc(N5CCN(C)CC5)c(O)c4)nc32)C1 [Example 136],E (E represents a pKi value of 7 or below (Ki of 100 nM or above))
2,C=CC(=O)N1CC(CCn2c(=O)ccc3cnc(Nc4ccc(N5CCN(C)CC5)cn4)nc32)C1 [Example 137],E (E represents a pKi value of 7 or below (Ki of 100 nM or above))
3,C=CC(=O)N1CC(CCn2c(=O)ccc3cnc(Nc4ccc(N5CCN(C(=O)C(C)(C)O)CC5)cc4)nc32)C1 [Example 138],D (D represents a pKi value between 7 and 8 (Ki between 100 nM and 10 nM))
4,C=CC(=O)N1CC(CCn2c(=O)ccc3cnc(Nc4ccc(N5CCN(C(=O)CC[S+](C)[O-])CC5)cc4)nc32)C1 (centres unmarked) [Example 139],E (E represents a pKi value of 7 or below (Ki of 100 nM or above))
5,C=CC(=O)N1CC(CCn2c(=O)ccc3cnc(Nc4ccc(N5CCN(C(=O)CCS(C)(=O)=O)CC5)cc4)nc32)C1 [Example 140],E (E represents a pKi value of 7 or below (Ki of 100 nM or above))

# Target: JAK3 (Homo sapiens (Human), UniProt P52333)
# Test: Biochemical JAK3 kinase assay (LanthaScreen)
# Conditions: not given
# In short: as §1
# JAK3, sequence (P52333 whole entry): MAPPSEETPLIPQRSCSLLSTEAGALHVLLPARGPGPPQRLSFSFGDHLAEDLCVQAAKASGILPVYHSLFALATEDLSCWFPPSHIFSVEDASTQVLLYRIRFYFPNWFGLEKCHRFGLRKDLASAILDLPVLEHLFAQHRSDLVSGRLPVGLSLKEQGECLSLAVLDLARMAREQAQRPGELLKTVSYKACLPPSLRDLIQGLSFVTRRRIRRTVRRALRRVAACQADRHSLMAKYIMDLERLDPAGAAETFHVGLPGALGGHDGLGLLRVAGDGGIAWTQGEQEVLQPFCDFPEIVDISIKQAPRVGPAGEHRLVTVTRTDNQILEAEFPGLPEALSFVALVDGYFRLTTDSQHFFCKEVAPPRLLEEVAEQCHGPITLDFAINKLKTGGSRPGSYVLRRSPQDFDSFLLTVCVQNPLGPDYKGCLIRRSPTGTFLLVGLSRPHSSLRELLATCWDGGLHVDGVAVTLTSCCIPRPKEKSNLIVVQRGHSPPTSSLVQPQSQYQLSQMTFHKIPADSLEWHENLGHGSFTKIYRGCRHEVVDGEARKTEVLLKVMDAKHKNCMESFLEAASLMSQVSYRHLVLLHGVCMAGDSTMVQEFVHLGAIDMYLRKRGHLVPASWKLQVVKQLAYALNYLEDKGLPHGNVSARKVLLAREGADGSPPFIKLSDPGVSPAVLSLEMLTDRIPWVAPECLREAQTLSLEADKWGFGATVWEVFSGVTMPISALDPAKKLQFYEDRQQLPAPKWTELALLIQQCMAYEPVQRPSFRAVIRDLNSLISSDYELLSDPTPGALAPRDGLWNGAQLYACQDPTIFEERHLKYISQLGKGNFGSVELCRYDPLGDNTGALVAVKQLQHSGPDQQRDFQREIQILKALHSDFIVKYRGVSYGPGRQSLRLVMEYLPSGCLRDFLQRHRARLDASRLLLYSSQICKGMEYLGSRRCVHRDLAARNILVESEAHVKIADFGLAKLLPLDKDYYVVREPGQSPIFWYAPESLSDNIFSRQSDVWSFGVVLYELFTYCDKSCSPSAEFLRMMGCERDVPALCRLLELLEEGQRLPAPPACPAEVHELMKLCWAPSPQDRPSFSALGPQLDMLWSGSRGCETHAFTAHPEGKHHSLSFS
row,SMILES,JAK 3 (pKi)
1,C=CC(=O)N1CC(CCn2c(=O)ccc3cnc(Nc4ccc(N5CCN(C)CC5)c(O)c4)nc32)C1 [Example 136],B (B represents pKi value between 9 and 10 (Ki between 1 nM and 0.1 nM))
2,C=CC(=O)N1CC(CCn2c(=O)ccc3cnc(Nc4ccc(N5CCN(C)CC5)cn4)nc32)C1 [Example 137],B (B represents pKi value between 9 and 10 (Ki between 1 nM and 0.1 nM))
3,C=CC(=O)N1CC(CCn2c(=O)ccc3cnc(Nc4ccc(N5CCN(C(=O)C(C)(C)O)CC5)cc4)nc32)C1 [Example 138],A (A represents a pKi value≥10 (Ki≤0.1 nM))
4,C=CC(=O)N1CC(CCn2c(=O)ccc3cnc(Nc4ccc(N5CCN(C(=O)CC[S+](C)[O-])CC5)cc4)nc32)C1 (centres unmarked) [Example 139],A (A represents a pKi value≥10 (Ki≤0.1 nM))
5,C=CC(=O)N1CC(CCn2c(=O)ccc3cnc(Nc4ccc(N5CCN(C(=O)CCS(C)(=O)=O)CC5)cc4)nc32)C1 [Example 140],A (A represents a pKi value≥10 (Ki≤0.1 nM))

# Same assay, conditions: selectivity JAK3 over JAK1, difference of pKi
row,SMILES,JAK3 (pKi)-JAK1 (pKi)
1,C=CC(=O)N1CC(CCn2c(=O)ccc3cnc(Nc4ccc(N5CCN(C)CC5)c(O)c4)nc32)C1 [Example 136],A (A represents a value of 3 or above)
2,C=CC(=O)N1CC(CCn2c(=O)ccc3cnc(Nc4ccc(N5CCN(C)CC5)cn4)nc32)C1 [Example 137],A (A represents a value of 3 or above)
3,C=CC(=O)N1CC(CCn2c(=O)ccc3cnc(Nc4ccc(N5CCN(C(=O)C(C)(C)O)CC5)cc4)nc32)C1 [Example 138],A (A represents a value of 3 or above)
4,C=CC(=O)N1CC(CCn2c(=O)ccc3cnc(Nc4ccc(N5CCN(C(=O)CC[S+](C)[O-])CC5)cc4)nc32)C1 (centres unmarked) [Example 139],A (A represents a value of 3 or above)
5,C=CC(=O)N1CC(CCn2c(=O)ccc3cnc(Nc4ccc(N5CCN(C(=O)CCS(C)(=O)=O)CC5)cc4)nc32)C1 [Example 140],A (A represents a value of 3 or above)

# Target: Tyk2 (Homo sapiens (Human), UniProt P29597)
# Test: Biochemical Tyk2 kinase assay (LanthaScreen)
# Conditions: not given
# In short: as §1
# Tyk2, sequence (P29597 whole entry): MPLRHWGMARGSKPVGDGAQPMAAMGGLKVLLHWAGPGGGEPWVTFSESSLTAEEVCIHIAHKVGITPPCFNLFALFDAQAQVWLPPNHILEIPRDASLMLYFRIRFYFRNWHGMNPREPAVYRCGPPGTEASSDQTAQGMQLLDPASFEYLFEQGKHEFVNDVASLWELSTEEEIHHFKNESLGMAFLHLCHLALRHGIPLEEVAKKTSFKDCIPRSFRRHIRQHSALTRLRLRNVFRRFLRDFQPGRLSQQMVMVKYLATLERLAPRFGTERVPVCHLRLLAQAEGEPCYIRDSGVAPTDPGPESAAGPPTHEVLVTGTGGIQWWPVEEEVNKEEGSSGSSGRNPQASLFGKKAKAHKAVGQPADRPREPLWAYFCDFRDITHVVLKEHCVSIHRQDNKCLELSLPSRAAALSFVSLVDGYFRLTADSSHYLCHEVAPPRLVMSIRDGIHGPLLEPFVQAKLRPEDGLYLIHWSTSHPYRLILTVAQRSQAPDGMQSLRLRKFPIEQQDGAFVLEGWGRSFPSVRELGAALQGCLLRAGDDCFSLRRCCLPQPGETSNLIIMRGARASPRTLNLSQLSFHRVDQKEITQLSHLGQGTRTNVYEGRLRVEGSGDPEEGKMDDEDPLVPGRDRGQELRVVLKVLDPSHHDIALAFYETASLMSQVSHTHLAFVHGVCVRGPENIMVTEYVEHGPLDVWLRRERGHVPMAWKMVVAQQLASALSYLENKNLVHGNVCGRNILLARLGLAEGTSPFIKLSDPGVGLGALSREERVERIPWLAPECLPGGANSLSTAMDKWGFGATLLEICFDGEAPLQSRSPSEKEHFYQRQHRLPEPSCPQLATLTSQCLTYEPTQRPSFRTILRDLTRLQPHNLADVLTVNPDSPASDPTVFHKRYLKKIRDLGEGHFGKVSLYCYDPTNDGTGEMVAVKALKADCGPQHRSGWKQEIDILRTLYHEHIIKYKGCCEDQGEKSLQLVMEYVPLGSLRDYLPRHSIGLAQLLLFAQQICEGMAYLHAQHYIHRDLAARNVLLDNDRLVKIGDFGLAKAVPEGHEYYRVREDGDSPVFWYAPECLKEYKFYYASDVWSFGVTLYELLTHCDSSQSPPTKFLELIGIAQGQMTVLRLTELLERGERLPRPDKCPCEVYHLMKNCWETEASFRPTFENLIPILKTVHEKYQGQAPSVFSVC
row,SMILES,Tyk 2 (pKi)
1,C=CC(=O)N1CC(CCn2c(=O)ccc3cnc(Nc4ccc(N5CCN(C)CC5)c(O)c4)nc32)C1 [Example 136],E (E represents a pKi value of 7 or below (Ki of 100 nM or above))
2,C=CC(=O)N1CC(CCn2c(=O)ccc3cnc(Nc4ccc(N5CCN(C)CC5)cn4)nc32)C1 [Example 137],E (E represents a pKi value of 7 or below (Ki of 100 nM or above))
3,C=CC(=O)N1CC(CCn2c(=O)ccc3cnc(Nc4ccc(N5CCN(C(=O)C(C)(C)O)CC5)cc4)nc32)C1 [Example 138],E (E represents a pKi value of 7 or below (Ki of 100 nM or above))
4,C=CC(=O)N1CC(CCn2c(=O)ccc3cnc(Nc4ccc(N5CCN(C(=O)CC[S+](C)[O-])CC5)cc4)nc32)C1 (centres unmarked) [Example 139],E (E represents a pKi value of 7 or below (Ki of 100 nM or above))
5,C=CC(=O)N1CC(CCn2c(=O)ccc3cnc(Nc4ccc(N5CCN(C(=O)CCS(C)(=O)=O)CC5)cc4)nc32)C1 [Example 140],E (E represents a pKi value of 7 or below (Ki of 100 nM or above))

# Tested on: IL-2 stimulated STAT5 phosphorylation in Tall-1 human T cell line (JAK3)
# Test: Cellular JAK3 potency assay: inhibition of IL-2 stimulated pSTAT5 in Tall-1 T cells
# Assay type: cell-based
# Conditions: IL-2 stimulated pSTAT5, Tall-1 T cells
# In short: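 Tall-1 cells, 45,000 per well, preincubated 1 hour with compound at 37 °C, then stimulated 30 minutes with IL-2 at 300 ng/ml final. pSTAT5 (Tyr694/699) in lysates quantified by AlphaLISA SureFire Ultra. pIC50 derived from inhibition curves, given as mean with SD.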
row,SMILES,Tall-1 (pIC50)
1,C=CC(=O)N1CC(CCn2c(=O)ccc3cnc(Nc4ccc(N5CCN(C)CC5)c(O)c4)nc32)C1 [Example 136],A (A represents a pIC50 value≥7.5 (IC50≤32 nM))
2,C=CC(=O)N1CC(CCn2c(=O)ccc3cnc(Nc4ccc(N5CCN(C)CC5)cn4)nc32)C1 [Example 137],B (B represents a pC50 value between 6.7 (included) and 7.5 (IC50 between 200 nM and 32 nM))
3,C=CC(=O)N1CC(CCn2c(=O)ccc3cnc(Nc4ccc(N5CCN(C(=O)C(C)(C)O)CC5)cc4)nc32)C1 [Example 138],B (B represents a pC50 value between 6.7 (included) and 7.5 (IC50 between 200 nM and 32 nM))
4,C=CC(=O)N1CC(CCn2c(=O)ccc3cnc(Nc4ccc(N5CCN(C(=O)CC[S+](C)[O-])CC5)cc4)nc32)C1 (centres unmarked) [Example 139],C (C represents a pIC50 value between 6 and 6.7 (IC50 between 1 μM and 200 nM))
5,C=CC(=O)N1CC(CCn2c(=O)ccc3cnc(Nc4ccc(N5CCN(C(=O)CCS(C)(=O)=O)CC5)cc4)nc32)C1 [Example 140],C (C represents a pIC50 value between 6 and 6.7 (IC50 between 1 μM and 200 nM))

# Tested on: Caco-2 cell monolayers
# Test: Caco-2 permeation assay
# Assay type: in vitro ADME
# Conditions: 5 μM, A-B direction, with Verapamil (25 μM)
# In short: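 Compounds tested at 5 μM in duplicate across Caco-2 monolayers, apical-to-basolateral, with 25 μM verapamil to block P-gp, at 37° C., 5% CO2. Apical and basal samples taken at 0 and 120 min, analysed by LC-MS/MS; Papp (cm/sec) calculated as dQ/(dt×Area×concentration).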
row,SMILES,Caco Kp
1,C=CC(=O)N1CC(CCn2c(=O)ccc3cnc(Nc4ccc(N5CCN(C)CC5)c(O)c4)nc32)C1 [Example 136],A (A represents a value below 5×10^−6 cm/sec)
2,C=CC(=O)N1CC(CCn2c(=O)ccc3cnc(Nc4ccc(N5CCN(C)CC5)cn4)nc32)C1 [Example 137],A (A represents a value below 5×10^−6 cm/sec)
3,C=CC(=O)N1CC(CCn2c(=O)ccc3cnc(Nc4ccc(N5CCN(C(=O)C(C)(C)O)CC5)cc4)nc32)C1 [Example 138],A (A represents a value below 5×10^−6 cm/sec)
4,C=CC(=O)N1CC(CCn2c(=O)ccc3cnc(Nc4ccc(N5CCN(C(=O)CC[S+](C)[O-])CC5)cc4)nc32)C1 (centres unmarked) [Example 139],A (A represents a value below 5×10^−6 cm/sec)
5,C=CC(=O)N1CC(CCn2c(=O)ccc3cnc(Nc4ccc(N5CCN(C(=O)CCS(C)(=O)=O)CC5)cc4)nc32)C1 [Example 140],A (A represents a value below 5×10^−6 cm/sec)
